These are literature values, as cited in US20090012101A1, “Mucarinic Agonists and Methods of Use Thereof” (UNIVERSITY OF TOLEDO, priority 2005, published 2009).

Molecules are shown by their SMILES.

For data set [1], the target named is T1, M2 receptors (Homo sapiens, UniProt P08172).
T1 sequence (P08172 1-466): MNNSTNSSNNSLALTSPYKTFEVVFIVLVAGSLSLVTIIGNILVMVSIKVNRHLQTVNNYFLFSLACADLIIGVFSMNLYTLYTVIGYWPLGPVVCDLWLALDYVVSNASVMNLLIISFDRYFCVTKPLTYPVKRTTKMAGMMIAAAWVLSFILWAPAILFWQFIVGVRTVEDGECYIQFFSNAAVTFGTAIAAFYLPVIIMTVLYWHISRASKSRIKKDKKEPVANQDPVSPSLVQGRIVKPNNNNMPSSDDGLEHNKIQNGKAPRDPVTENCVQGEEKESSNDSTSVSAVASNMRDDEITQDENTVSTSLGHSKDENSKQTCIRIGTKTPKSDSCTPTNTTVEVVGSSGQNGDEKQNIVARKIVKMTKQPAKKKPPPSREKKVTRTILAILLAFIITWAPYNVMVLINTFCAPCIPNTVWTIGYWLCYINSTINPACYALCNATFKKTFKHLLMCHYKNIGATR

Data set [2] has as its target T2, M4 receptors (Homo sapiens, UniProt P08173).
T2 sequence (P08173 1-479): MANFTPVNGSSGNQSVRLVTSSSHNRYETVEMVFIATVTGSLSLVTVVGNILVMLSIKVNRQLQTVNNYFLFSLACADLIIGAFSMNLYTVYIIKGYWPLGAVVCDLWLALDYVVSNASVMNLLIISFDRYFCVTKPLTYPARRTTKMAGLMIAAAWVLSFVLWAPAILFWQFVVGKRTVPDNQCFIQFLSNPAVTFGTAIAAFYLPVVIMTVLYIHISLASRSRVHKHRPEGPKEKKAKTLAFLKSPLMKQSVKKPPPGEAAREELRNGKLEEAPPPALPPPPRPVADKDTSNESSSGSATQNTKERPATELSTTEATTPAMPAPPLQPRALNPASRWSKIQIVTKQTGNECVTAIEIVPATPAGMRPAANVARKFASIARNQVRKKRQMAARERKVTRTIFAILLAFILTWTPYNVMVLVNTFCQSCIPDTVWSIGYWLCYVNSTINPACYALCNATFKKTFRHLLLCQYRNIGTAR

The conditions of data set [3]: preclinical studies.

With `CCCCSc1nsnc1[C@H]1CN2CCC[C@H]1C2` [BuTAC, (5R,6R)-6-(3-butylthio-1,2,5-thiadiazol-4-yl)-1-azabicyclo[3.2.1]octane], the “agonist activity at M2 receptors” value in data set [1] was “partial agonist activity”. For the same compound, the “agonist activity at M4 receptors” value in data set [2] is on record as “partial agonist activity”. Moreover, the antipsychotic activity result in data set [3] is given as “strong antipsychotic activity”.
For `CCCCCCOc1nsnc1C1=CCCN(C)C1` [xanomeline], the “unwanted side effects associated with activation of M3 receptors” value was “salivation, diarrhea and profuse sweating”. Also, where the note is “phase II clinical trials, Alzheimer's patients”, the “effect on psychiatric symptoms such as hallucinations” value is given as “significantly improved psychiatric symptoms”.
